We go through two compounds from US20200215009A1, “Optimized Solution for the Treatment of Alzheimer's, Stroke, Cardiovascular and other Amyloid Related Diseases” (priority 2017, published 2020).

In one data set the target is T1, L68Q cystatin C (Homo sapiens, UniProt P01034, L94Q).
T1 construct: confirmed by genetic screen to express L68Q cystatin C; from tissue; host or cells: HCCAA patients; plaques and aggregated protein observed on biopsy
T1 sequence (P01034 27-146 L94Q): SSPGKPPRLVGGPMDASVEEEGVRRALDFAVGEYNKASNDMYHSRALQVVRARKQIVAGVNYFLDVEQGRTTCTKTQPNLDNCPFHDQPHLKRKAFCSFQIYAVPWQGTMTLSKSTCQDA
The data set can be described thus: Preliminary trial of N-acetylcysteine in HCCAA patients expressing L68Q cystatin C, monitored by biopsy. Type of data set: in vivo. From the text: Three persons who had been identified through characteristic HCCAA symptoms confirmed by genetic screen to express L68Q cystatin C agreed to participate in a preliminary trial with a prototype drug to support antioxidant and other effects of GSH. N-acetylcysteine was used as a GSH-support/anti-cystatin-C-polymerization archetypical drug for conceptual proof and support of the hypotheses supporting this invention. […] One patient fully complied with the prescribed protocol. Two patients were only partially compliant. The fully compliant patient presented with a 50% reduction in plaques observed on biopsy.
Treatments are continuing, augmented by confirmatory/advisory biopsies. Biopsy intervals may be approximately weekly, but longer intervals are envisioned as sufficient to monitor effects and dosages and to encourage compliance in testing and treatment maintenance. For example, biopsy intervals may be weekly, biweekly, monthly, bimonthly, quarterly, semi-annual, annual, etc. Biopsy appointments may be used both for treatment/disease monitoring, but also to maintain patient attention and interaction. Medical advisory panels and insurance issues may also be considered in determining the frequency and type(s) of biopsies.

The next data set has as its system cellular glutathione. The following applies: dose of about 22-65 mg/kg; cited from earlier work.

Where only a bound is given, the exact number is not on record here.

Turning to `CC(=O)N[C@@H](CS)C(=O)O` [N-acetylcysteine], at L68Q cystatin C (all three HCCAA patients (one fully compliant, two partially compliant)), the disease arrest entry is “disease arrest”. For the same compound, on L68Q cystatin C (fully compliant patient), the “reduction in plaques observed on biopsy” value is recorded as 50%. Also, the “reduction of aggregated protein previously observed” value at L68Q cystatin C (one of the two partially compliant patients) is given as “significant reduction”.
With `O=C1N[C@H](C(=O)O)CS1` [OTC, L-2-oxothiazolidine-4-carboxolate], in the data set on cellular glutathione, the “change in cellular glutathione shortly after administration” value was “double” and the “duration of effect, waning in plasma post administration” value was not above 8 h.
